In ChEMBL document CHEMBL3507680, “University of Dundee, Gates Library screen for HepG2 cell viability”:

Assay: Human HepG2 cell viability assay in 384 well format
Type: toxicity, cell-based
Design: dose 125 nL, time 70.5 hour; cytotoxicity at 70.5 h: concentration not given beside the values
Settings: HepG2 cells, read-out: Inhibition

Structure (SMILES)	cytotoxicity at 70.5 h
CCOc1ccc(C(=O)NCc2ccnc(N3CCN(C)CC3)c2)cn1	-7.61%
O=C(Nc1nc(-c2ccccc2)ns1)N1CCC(CO)CC1	-12.6%
CN(C)CC1(O)CCN(C(=O)c2cnc(-c3ccccn3)nc2)C1 (stereo not drawn)	15.3%
COc1ncc(C(=O)N2CCC3(CC2)C(=O)Nc2ccccc23)cn1	0.417%
CNC(=O)c1cc2c(nc1NCC(C)C)CCN(S(=O)(=O)N(C)C)CC2	-5.52%
O=C(C1CSc2ccccc2O1)N1CCN(CCO)CC1 (stereo not drawn)	-14.3%
CCn1c(CN(C)C)nnc1C1CCN(Cc2ccccc2)CC1	-10.3%
CC(C)C1CCCN1C(=O)Nc1ccc(=O)n(C)c1 (stereo not drawn)	15%
CNCC(=O)N1CCCC(c2nccnc2Oc2cccc(F)c2)C1 (stereo not drawn)	-10.3%
CN(C)[C@@H]1CCN(C(=O)NC2CCCC2)[C@H]1Cc1cnn(C)c1	-15.8%
COC(=O)c1cccc(NCC(=O)NC(N)=O)c1	12.1%
CC(C)NC(=O)CCN1CCCC1c1cccc2c1OCCO2 (stereo not drawn)	-8.96%
Oc1cccc(-c2cc(C3CCN(Cc4cncnc4)C3)ccn2)c1 (stereo not drawn)	-3.45%
Cc1cc(NC(=O)CN2CCCC2Cn2nc(C)nc2C)on1 (stereo not drawn)	-6.45%
c1ccc(C[C@H]2CN(Cc3nccs3)CC[C@@H]2OCC2CC2)cc1	-2.59%
CCc1ccc(-n2nnc(C(=O)O)c2-c2ccccn2)cc1	-26.2%
Cc1cc(CN(C)C(=O)Nc2ccccc2C)no1	-4.53%
NC(=O)C1CCN(C(C(=O)O)c2ccc(Cl)c(C(F)(F)F)c2)CC1 (stereo not drawn)	13.4%
CCCS(=O)(=O)N1CCC(NC(=O)c2cc3ccccc3s2)CC1	-6.56%
COc1ccccc1CNC(=O)c1[nH]ncc1Cl	6.24%
NC(=O)c1cccc(OCC(=O)N2CCCC(n3cccn3)C2)c1 (stereo not drawn)	3.84%
CCNC(=O)[C@@H]1C[C@@H](NC(=O)c2cccnc2O)CN1Cc1ccsc1	-11.2%
O=C(CCc1cccs1)N1CCC(Nc2cccnn2)CC1	42.7%

Structure (SMILES)	cytotoxicity at 70.5 h
CS(=O)(=O)NC(=O)c1cc(Cl)c2c(c1)OCCCO2	0.437%
CC(NC(=O)c1ccc(C(N)=O)cc1)c1cccc(N2CCOC2=O)c1 (stereo not drawn)	0.0239%
CCC(NC(=O)NCc1ccoc1C)c1c(C)nn(C)c1C (stereo not drawn)	-5.65%
Cc1cc(C)c(CNC(=O)NCC(O)COc2ccccc2)c(=O)[nH]1 (stereo not drawn)	21.6%
Cc1ccc2c(c1)C(NC(C)C)CC21CCNCC1 (stereo not drawn)	-1.86%
CN(C)S(=O)(=O)N1CCCC1C(=O)N1CCSCC1 (stereo not drawn)	22.8%
Cc1cc(C)n(CCN2CCC(N(C)Cc3noc(C4CC4)n3)C2)n1 (stereo not drawn)	-4.52%
CN(C)C(=O)CN1CCC2(CCN(C(=O)N3CCCC3)CC2)C1=O	-3.29%
COc1ccc([C@@H]2CN(c3cc(OC)ncn3)C[C@H]2N(C)C)cc1	22.1%
O=C(C1CCCC1)N1C[C@@H](c2ccsc2)[C@@H]2CN(C3CCCC3)CC[C@@H]21	-8.32%
O=S(=O)(NC1CCCOC1)c1ccc(C(F)(F)F)nc1 (stereo not drawn)	-1.78%
Cc1noc(C)c1CCC(=O)N(C)C(C)c1cccs1 (stereo not drawn)	-11.3%
Cc1nc(N2CC[C@@H](c3ccc4ccccc4c3)[C@H](O)C2)no1	3.2%
CCC(NC(=O)CC1CCN(CC)CC1)c1cn2cccnc2n1 (stereo not drawn)	-5.63%
Cc1ccc(C(=O)N2CCCCC2c2[nH]ncc2S(C)(=O)=O)cn1 (stereo not drawn)	-2.26%
CC(=O)N1CCN(CCCSCc2ccccc2)CC1	6.76%
N#Cc1ccccc1N1CCN(C(=O)NCC(=O)N2CCCC2)CC1	-0.138%
CCSCCNC(=O)Nc1cc(C(=O)N2CCOCC2)ccc1Cl	-3.96%
c1cncc(C(Cn2cnnc2)N2CCOCC2)c1 (stereo not drawn)	2.14%
Cc1cccc(C(=O)N2C[C@@H]3[C@H](CC(=O)N4CCCC4)[C@@H]3C2)n1	-6.1%
Cc1ccc(-c2ccc(=O)n(CC(=O)Nc3nccs3)n2)cc1	-4.07%
CC1CN(C)c2ccccc2CN1CCn1cncn1 (stereo not drawn)	-0.327%
Cc1cn2c(n1)C(CNCc1cnn3ccccc13)CCC2 (stereo not drawn)	-5.6%

Structure (SMILES)	cytotoxicity at 70.5 h
CC(C)C1CN(S(=O)(=O)c2cccc(C#N)c2)CCS1 (stereo not drawn)	8.4%
CNC(=O)CN([C@H]1C[C@H]2CCOC[C@H]2C1)S(=O)(=O)c1ccccc1	-5.55%
O=C(COc1coc(CN2CCOCC2)cc1=O)Nc1ccccc1F	-12%
c1ccc(CC2(CNCc3ncc[nH]3)CCC2)cc1	-2.49%
CS(=O)(=O)N1CCCN(CCCSCc2ccccc2)CC1	-8.27%
CCc1noc(CN2CCOC3(CCCC3)C2)n1	-2.11%
Cc1nc2n(n1)CC(Nc1nc(C(F)(F)F)nc3ccccc13)CC2 (stereo not drawn)	-1.15%
CCOc1cccc(COC(=O)c2cc(C)on2)n1	1.07%
CN(CCS(=O)(=O)c1cc(Cl)ccc1Cl)CC(N)=O	-0.37%
O=C(C1CCOCC1)N1CC[C@@H](O)[C@@H]1Cc1ccccc1	1.56%
Cc1cnn(CCC(=O)N2CCC(Nc3cccnn3)CC2)c1	18.3%
CCCN1CCCn2c(nc(CNC(=O)c3cnoc3C)cc2=O)C1	16.5%
CSc1cc2c(cc1NC(=O)N(C)Cc1ccncc1)OCCO2	-2.5%
COc1cc2c(cc1CN1CCc3sccc3C1C)OCCO2 (stereo not drawn)	2.33%
Cn1cccc1C(=O)N1C[C@@H]2COC[C@]2(CNS(C)(=O)=O)C1	-1.05%
COCCN1CCN(C(=O)c2cc(C(C)C)on2)[C@H]2CS(=O)(=O)C[C@H]21	2.11%
Cc1cncc(C2CCCN(C(=O)c3ccc(C)[nH]c3=O)C2)n1 (stereo not drawn)	-4.5%
COc1cccc(NC(=O)CN(C(C)C)C2CC2)c1	-2.69%
CS(=O)(=O)c1cccc2c1CCCN2C(=O)Cc1cccc(F)c1	-2.8%
Cn1ccnc1SCCNc1nccc(C(F)(F)F)n1	16%
CC(C)c1ncc(CNC2(c3ccc(Cl)cc3)CC2)cn1	-1.4%
O=C1NC(C(=O)NCc2cccnc2Oc2ccc(F)c(F)c2)CO1 (stereo not drawn)	-21.4%
CC[C@H]1CN2CC[C@H]1C[C@@H]2CNCc1cccc(C#N)c1	13%

Structure (SMILES)	cytotoxicity at 70.5 h
CNC(=O)[C@@H]1C[C@H]2CN(Cc3ccco3)C[C@H]2N1C	-15.3%
CC(NCc1ccc(OCC(N)=O)cc1)c1ccc(Cl)cc1 (stereo not drawn)	15.5%
Cc1nn(C)c2cnn(C(C)C(=O)NCc3cccnc3)c12 (stereo not drawn)	-5.87%
COCCN1CCO[C@H]2CN(C(=O)c3ccncc3F)C[C@H]21	-9.68%
CC(C)c1nccn1C1CCCN(C(=O)c2cccc3c2OCO3)C1 (stereo not drawn)	8.22%
O=C(CC1CC1)N1CCC2(CCCN(CCOc3ccccc3)C2)C1 (stereo not drawn)	-11.8%
c1ccc(-c2ccc3nc(C4CCN(CC5CC5)CC4)nn3c2)cc1	-6.34%
Cc1c(F)cccc1S(=O)(=O)N(C)CC(C)O (stereo not drawn)	-11.6%
O=C(NCC(c1ccccc1)N1CCOCC1)Nc1cn[nH]c1 (stereo not drawn)	1.36%
c1cncc(COC[C@H]2CC[C@H]3[C@H](CCN3Cc3cccs3)O2)c1	2.81%
Cc1ccc(CC(=O)N2CCC(Nc3cccnn3)CC2)s1	0.908%
C=C(C)COc1cccc(C(=O)N(CC)Cc2nccn2C)c1	2.21%
CC1C(=O)Nc2cccnc2N1S(=O)(=O)c1ccc(C#N)c(Cl)c1 (stereo not drawn)	-6.2%
CC(C)NC(=O)[C@@H]1C[C@@H](N)CN1C(=O)c1cc2c([nH]c1=O)CCCC2	-6.99%
N#Cc1c(F)cccc1N1CCCC(C(=O)Nc2nncs2)C1 (stereo not drawn)	-16.9%
COc1ccc(S(=O)(=O)N2CCC(O)(CN(C)C)C2)cc1 (stereo not drawn)	-4.76%
C[C@@H]1CN(C(=O)Cc2ccsc2)C[C@]12CCN(CCN(C)C)C2=O	-10.3%
Cc1cnc(CN(Cc2ccc(Cl)s2)C2CCN(C)C2)o1 (stereo not drawn)	-9.93%
COc1ncccc1CN1CCC2(CC1)CC(OCC1CC1)CO2 (stereo not drawn)	-4.27%
Cc1cnn(CC2CCCN2C(=O)CCc2ccc3c(c2)OCO3)c1 (stereo not drawn)	20.8%
CN(Cc1ccsc1)C(=O)CN1CCCC1Cn1cccn1 (stereo not drawn)	-13.8%
CN(C)C(=O)CN1C[C@@H]2CC[C@H](C1)N(Cc1ccc(Cl)cc1Cl)C2	2.51%
c1cnc(OCc2nnc3n2CCN(CC2CC2)C3)nc1	0.759%

Structure (SMILES)	cytotoxicity at 70.5 h
O=C(COc1ccc2c(c1)CCCC2=O)NCc1ccco1	-4.86%
Cc1cn(Cc2ccc(F)cc2)nc1N	-1.4%
CC(C)N1CCC2(CCNCC2)C1=O	-13%
CC(C)(C)c1noc(CN2CCCC(CNS(N)(=O)=O)C2)n1 (stereo not drawn)	-2.1%
CN(Cc1nnc(C2CC2)n1C)S(=O)(=O)Cc1ccccc1F	-20.7%
Cc1nc(C2CCCN2CC(=O)N(Cc2ccsc2)C2CC2)no1 (stereo not drawn)	-5.17%
Cc1cc(NC(=O)c2ccc(F)cc2F)n(C)n1	-10.6%
COC(=O)c1cccc(CN(C)C(C)c2ccccn2)c1 (stereo not drawn)	-24.9%
CC(C)c1noc(C2CCCN2C(=O)Cc2cn3ccsc3n2)n1 (stereo not drawn)	-9.25%
Cc1cnc(C(=O)N2C[C@H]3CN(Cc4nccs4)C[C@H]3C2)cn1	-5.82%
CN1CCN(C2CCN(Cc3ccc(Cl)s3)CC2)C1=O	-0.237%
Cc1ccc(CN(CCN(C)C)Cc2ncc[nH]2)s1	-5.13%
O=S1(=O)NC(C2CCN(Cc3ccncc3)CC2)Nc2ccccc21 (stereo not drawn)	23.9%
Cn1ncc(NC(=O)Cn2ccc(-c3cccc(F)c3)n2)n1	1.6%
O=C(NCCC1=CCCCC1)c1cc(-c2ccc(O)cc2)n[nH]1	-1.77%
CSCc1cccc(S(=O)(=O)N2CCC(C)CC2)c1	8.82%
NC(=O)Nc1cccc(C(=O)N(Cc2ccncc2)C2CC2)c1	-10.2%
O=C(c1csc(I)c1)N1CCc2c(ncn2C2CC2)C1	-3.47%
Cc1ccc(CN2CCC3(CCCN(C(=O)N(C)C)C3)C2)cc1 (stereo not drawn)	-6.47%
O=C(c1nnn(-c2ccc(C(F)(F)F)cc2)n1)N1CC(O)C1	-8.07%
CC(NC1(CNC(=O)CC2CCCC2)CCOCC1)c1ccccc1 (stereo not drawn)	-6.24%
